Usually EC50 stands for the concentration at which the effect is half-maximal.

The values below come from article PMC4501119, “Cholestenoic acid, an endogenous cholesterol metabolite, is a potent γ-secretase modulator” (Molecular Neurodegeneration, 2015).

Molecules are shown by their SMILES. Where two headings read alike, the source gives them in different places.

Test [1] relates to Aβ42 in CHO-2B7 cells (CHO cells stably overexpressing APP695). Briefly: Cell-based Aβ sandwich ELISA of conditioned media from CHO-2B7 cells treated 16 h. Further details: species or system Chinese hamster. Particulars: for fold less potent than CA 2a (Aβ42 EC50) / GSM activity: CHO-2B7 cells; for GSM activity: dose dependent studies. The protocol: Chinese hamster ovary (CHO) cells stably overexpressing APP695 (CHO-2B7 cells) were grown in Ham’s F-12 medium (Life Technologies) supplemented with 10 % fetal bovine serum and 100 units/ml of penicillin and 100 μg/ml streptomycin. Cells were grown at 37 °C in a humidified atmosphere containing 5 % CO2 in tissue culture plates (Costar). The cells were harvested at confluence and then utilized for biochemical analyses. Compounds were dissolved in dimethyl sulfoxide (DMSO) and screened in CHO-2B7 cells. The cells were incubated for 16 h in the presence of the compound diluted into OptiMEM-reduced serum medium (Life Technologies, Carlsbad, CA, USA) containing 1 % fetal bovine serum.
Monoclonal antibodies to Aβ were generated by the Mayo Clinic Immunology Core facilities (Jacksonville, FL, USA). Ab5 recognizes an epitope in the amino terminus of Aβ (Aβ1-16), recognizes both monomeric and aggregated Aβ, and is human specific. […] Ab 2.1.3 was raised against Aβ35-42 and is specific for Aβx-42. […] Total Aβ level was determined by capture with Ab5 and detected with horseradish peroxidase (HRP)-conjugated 4G8 (a monoclonal antibody against Aβ17-24; Covance, Waltham, MA, USA) with the other Aβ peptides detected with HRP-conjugated Ab5. For the cell-free assay and measuring mouse endogenous Aβ, HRP-conjugated 4G8 was used as the secondary detection antibody. Aβ standards (Bachem, King of Prussia, PA, USA) were prepared by dissolving in hexafluoroisopropanol (HFIP) at 1 mg/ml with sonication, dried under nitrogen, resuspended at 2 mg/ml HFIP, sonicated again and dried under nitrogen. The resulting Aβ was resuspended in 0.01 % ammonium hydroxide, portioned into aliquots in EC buffer, and frozen at −80 °C.
For orientation: In an ELISA, binding on a coated surface is turned into a signal by an enzyme label.

Test [2] has as its system Aβ42. Particulars: cited from earlier work; for GSM activity: endogenous bile acids.
The test system of test [3] is endogenous mouse Aβ (mAβ) in primary neuron-glia cultures. In words: Primary mixed neuron-glia culture, endogenous mouse Aβ ELISA. The format is cell-based. The protocol:
Primary mixed neuron-glia cultures were prepared from postnatal day 0 (P0) C3HBL/6 mouse brains (Harlan Labs). Cerebral cortices were dissected from P0 mouse brains and were dissociated in 2 mg/ml papain (Worthington) and 50 μg/mL DNAse I (Sigma) at 37 °C for 20 min. They were then washed three times in sterile Hank’s balanced salt solution (HBSS) to inactivate the papain and switched to 5 % fetal bovine serume (HyClone) in Neurobasal-A growth media (Gibco), which includes 0.5 mM L-glutamine (Gibco), 0.5 mM GlutaMax (Life Technologies), 0.01 % antibiotic-antimycotic (Gibco), and 0.02 % SM1 supplement (Stemcell). The tissue mixture was then triturated three times using a 5 mL pipette followed by a Pasteur pipette, and strained through a 70 μm cell strainer. The cell mixture was then centrifuged at 200xg for 3 min, and re-suspended in fresh Neurobasal-A media. They were then plated onto poly-D-lysine coated 96well plates at 100,000 cells/well. Cells were maintained in the Neurobasal-A growth media mentioned above without fetal bovine serum (FBS) at 37 °C in a humidified 5 % CO2 chamber.
(§1) Monoclonal antibodies to Aβ were generated by the Mayo Clinic Immunology Core facilities (Jacksonville, FL, USA). Ab5 recognizes an epitope in the amino terminus of Aβ (Aβ1-16), recognizes both monomeric and aggregated Aβ, and is human specific. […] Ab 2.1.3 was raised against Aβ35-42 and is specific for Aβx-42. […] For cell-based screens, Aβ was captured from conditioned medium with either Ab5, Ab38, Ab13.1.1, or Ab2.1.3 (coated at 10-50 μg/ml in EC buffer: 5 mM NaH2PO4-H2O, 20 mM Na2HPO4, 400 mM NaCl, 2.5 mM EDTA-full name, 151.5 μM BSA, 813 μM CHAPS, and 7.7 mM NaN3) on Immulon 4HBX Flat-Bottom Microfilter 96-well plates (Thermo Scientific, Waltham, MA, USA). Total Aβ level was determined by capture with Ab5 and detected with horseradish peroxidase (HRP)-conjugated 4G8 (a monoclonal antibody against Aβ17-24; Covance, Waltham, MA, USA) with the other Aβ peptides detected with HRP-conjugated Ab5. For the cell-free assay and measuring mouse endogenous Aβ, HRP-conjugated 4G8 was used as the secondary detection antibody. Aβ standards (Bachem, King of Prussia, PA, USA) were prepared by dissolving in hexafluoroisopropanol (HFIP) at 1 mg/ml with sonication, dried under nitrogen, resuspended at 2 mg/ml HFIP, sonicated again and dried under nitrogen. The resulting Aβ was resuspended in 0.01 % ammonium hydroxide, portioned into aliquots in EC buffer, and frozen at −80 °C. Following these steps, the Aβ is monomeric, as determined by size-exclusion chromatography.

For test [4], the target named is T1, γ-secretase (Homo sapiens, UniProt P49768).
T1 construct: The membrane derived from the H4 neuroglioma cells overexpressing APP695wt were prepared by carbonate extraction; endogenous in cells; host or cells: H4 neuroglioma cells overexpressing APP695wt (membranes, carbonate extraction)
In words: In vitro γ-secretase (broken cell) assay, membranes of H4 neuroglioma cells overexpressing APP695wt, Aβ ELISA. As to conditions: vs DMSO control, 2 h incubation. In kind it is biochemical. As to the method:
Broken cell assays were performed with slight modifications from the previous studies. The membrane derived from the H4 neuroglioma cells overexpressing APP695wt were prepared by carbonate extraction and incubated at 37 °C for 2 h with CA at various concentrations. Aβ levels were quantified by sandwich ELISAs. For Aβ and AICD spectra, the recombinant C100Flag proteins were overexpressed and purified from Escherichia coli BL21 using a HiTrap Q-column (GE Life Science, Little Chalfont, U.K.). The membrane containing γ-secretase was isolated from the CHO S-1 cell line using sodium carbonate (100 mM, pH 11.0). For the in vitro γ-secretase assay, C100Flag recombinant protein at 25 μM was incubated with the membrane (100 μg/mL) in the presence of CA (20 μM) and DMSO in 150 mM sodium citrate buffer (pH 6.8) containing complete protease inhibitor (Roche, Indianapolis, IN) for 2 h at 37 °C.
as §1

In test [5] the test system is brain mAβ42, mAβ38 and total mAβ. Briefly: Brain Aβ levels after intraperitoneal injection in wild type mice. The format is in vivo, mouse (C57BL/6 or CF-1). As to conditions: 30 mg/kg IP, brains harvested after 30 min, 1, 2 and 3 h. The protocol: 25(R)-CA powder was initially dissolved in DMSO (<4.5 % in the final mixture) and then combined with polyethylene glycol (15)-hydroxystearate (Solutol), ethanol, and water at a ratio of (15:10:75). One molar equivalent of sodium hydroxide was added to the mixture. We performed CA intraperitoneal (IP) injections to wild-type mice (C57BL/6 or CF-1). The mice were injected with 25(R)-CA on the right side of the abdomen. The injections have been performed with various time points (30 min, 1 h, 2 h, and 3 h) and with multiple doses (30 mg per kg (mg/kg), 60 mg/kg, 75 mg/kg and 100 mg/kg). The number of each cohort is 6–8. We used 30 mg/kg of CA for the time-course experiments, and for the dose–response experiments the end-point was set at 30 min. The brains and serum are harvested and frozen for brain Aβ extraction.
The mouse brains were harvested at the age of 3 months. The brains were weighed and recorded. The Diethylamine/Sodium Chloride (DEA/NaCl) extraction buffer (0.4 % DEA) was added to each sample and homogenized using a sonicator. The samples were transferred to a poly-carbonate centrifuge tube and spun down at 50,000xg for 30 min at 4 °C. The supernatant was loaded on the vacuum manifold with the appropriate number of HLB Oasis columns. The samples were loaded on the conditioned column, filtered, and eluted using prepared elution buffer (90 % Methanol, 2 % NH4OH). The eluates are concentrated using the Thermo-Savant SpeedVac concentrator for a minimum of 2 h at 55 °C with radiant heat. The concentrated samples are reconstituted in a blocking buffer (0.67 % Bovine serum albumin (BSA)) at the appropriate volume.
Monoclonal antibodies to Aβ were generated by the Mayo Clinic Immunology Core facilities (Jacksonville, FL, USA). […] Total Aβ level was determined by capture with Ab5 and detected with horseradish peroxidase (HRP)-conjugated 4G8 (a monoclonal antibody against Aβ17-24; Covance, Waltham, MA, USA) with the other Aβ peptides detected with HRP-conjugated Ab5. […] Following these steps, the Aβ is monomeric, as determined by size-exclusion chromatography.

[6] abbreviates: lowering Aβ42, CHO-2B7 cells, 16 h, ELISA.
[7] abbreviates: Cricetulus griseus, CHO-2B7, 16 h, lowering Aβ42, CHO-2B7 cells, 16 h, ELISA.
Where [8] appears, read: Cricetulus griseus, lowering Aβ42, CHO-2B7 cells, 16 h, ELISA.
The mark [9] stands for this setting: Cricetulus griseus, lowering Aβ42, CHO-2B7 cells, approximate value.

Regarding `CC(CCCC(C)C1CCC2C3CC=C4CC(F)CCC4(C)C3CCC12C)C(=O)O` (stereo not drawn) [Cmpd 12], in test [1] (setting [6]), a half-maximal response (EC50) required 8910 nM.
Consider `CC(CCC[C@@H](C)[C@H]1CC[C@H]2[C@@H]3CC=C4CCCC[C@]4(C)[C@H]3CC[C@]12C)C(=O)O` (stereo partly drawn) [Cmpd 13, 3-deoxy-CA], for which the “fold less potent than CA 2a (Aβ42 EC50)” value in test [1] is recorded as “approximately 3 fold”. In test [1] (setting [6]), this compound gave an EC50 of 670 nM.
In the case of `O=C(O)[C@H](CC1CCC1)c1cc(Cl)c(OCC(F)(F)F)c(-c2ccc(C(F)(F)F)cc2)c1` [Cmpd 3, (R)-2-(5-chloro-6-(2,2,2-trifluoroethoxy)-4’-(trifluoromethyl)biphenyl-3-yl)-3-cyclobutylpropanoic acid], the EC50 in test [2] (GSM activity, ref the previous literature) is 67 nM.
Take `C[C@H](CCC[C@H](C)C(=O)O)[C@H]1CC[C@H]2[C@@H]3CC=C4C[C@@H](O)CC[C@]4(C)[C@H]3CC[C@]12C` [Cmpd 2b, 25-(S)-CA]: the “fold less potent than CA 2a (Aβ42 EC50)” value in test [1] is reported as “about 2 fold”. In test [1] (setting [6]), this compound yielded a concentration giving a half-maximal response (EC50) of 501 nM.
In the case of `C[C@H](NC(=O)Cc1cc(F)cc(F)c1)C(=O)N[C@H]1N=C(c2ccccc2)c2ccccc2N(C)C1=O` [Cmpd E, reference compound], in test [3], the “overall Aβ production” value is “decreased”. Besides, the “decrease of total Aβ production” value in test [4] is 77%. Also, in test [4] (CA at 150 μM), the “decrease of Aβ42 production” value turned out to be 91%.
For `C[C@@H](CO)CCC[C@@H](C)[C@H]1CC[C@H]2[C@@H]3CC=C4C[C@@H](O)CC[C@]4(C)[C@H]3CC[C@]12C` [27-OHC, 27-hydroxycholesterol], the GSM activity result in test [1] is “inactive”. Besides, the “Aβ42 EC50” value in test [1] (setting [6]) is recorded as “could not be determined”.
On to `C[C@H](CCC(=O)O)[C@H]1CC[C@H]2[C@@H]3CC[C@@H]4C[C@H](O)CC[C@]4(C)[C@H]3CC[C@]12C` [lithocholic acid], for which the GSM activity result in test [2] is reported as “GSMs”.
`CC(CCCC(C)C1CCC2C3C(O)C=C4CC(O)CCC4(C)C3CCC12C)C(=O)O` (stereo not drawn) [7α-OH-CA, 7α-hydroxy-cholestenoic acid] had an EC50 in test [1] (setting [7]) of 970 nM. Further, the GSM activity result in test [1] is “demonstrated GSM activity”.
The compound `CC(CCCC(C)C1CCC2C3C(O)CC4=CC(=O)CCC4(C)C3CCC12C)C(=O)O` (stereo not drawn) [7α-OH-4-CA, 7α-hydroxy-4-oxo-cholestenoic acid] displayed an EC50 in test [1] (setting [7]) of 4150 nM. In test [1], the GSM activity entry was “demonstrated GSM activity”.
Regarding `C[C@H](CCCC(=O)O)[C@H]1CC[C@H]2[C@@H]3CC=C4C[C@@H](O[Si](C)(C)C(C)(C)C)CC[C@]4(C)[C@H]3CC[C@]12C` [Cmpd 5], the EC50 was 1780 nM in test [1] (setting [8]) and roughly 2000 nM in test [1] (setting [9]).
Take `CC(C)CC(c1ccc(Cl)cc1)N1CC[C@@H](CC(=O)O)C[C@H]1c1ccc(C(F)(F)F)cc1` (stereo partly drawn) [Cmpd 4, reference compound]: in test [3] (1 μM), the mAβ38 level result was “increased” and the mAβ42 level result is recorded as “decreased”. Further, the midpoint of the response in test [1] (setting [7]), the EC50, lay at 92 nM. The “brain Aβ levels” value in test [5] is given as “expected Aβ modulation”.
Turning to `C[C@H](CCC(=O)O)[C@H]1CC[C@H]2[C@@H]3[C@@H](O)C[C@@H]4C[C@H](O)CC[C@]4(C)[C@H]3C[C@H](O)[C@]12C` [ursocholic acid], the GSM activity entry in test [2] is reported as “GSMs”.
For the compound `C[C@H](CCC(=O)O)[C@H]1CC[C@H]2[C@@H]3CC[C@@H]4CCCC[C@]4(C)[C@H]3CC[C@]12C` [Cmpd 1, 5β-Cholanic acid], the EC50 in test [2] (decreasing Aβ42) is roughly 5700 nM; in test [2] (decreasing Aβ42, listed as 5β-cholanic acid), 5700 nM.
For the compound `C[C@H](CCCC(=O)O)[C@H]1CC[C@H]2[C@@H]3CC=C4C[C@@H](O)CC[C@]4(C)[C@H]3CC[C@]12C` [Cmpd 6], the figures for the EC50 in test [1] (setting [8]) and in test [1] (setting [9]) were 1960 nM and roughly 2000 nM, respectively.
